Experimental data: patent publication US20250092036A1, “COMPOUNDS AND COMPOSITIONS FOR MODULATING THE ACTIVITY OF ERK” (Novartis AG, priority 2023, published 2025)
Like-named read-outs stand apart in the source and are kept apart here.

Legend:
WM793 cells = experiment: Cell proliferation assay (CellTiter-Glo); format: cell-based; conditions: 3 d, read-out: Cell proliferation qualified AC50
Experimental: (§1) Cancer cell media was prepared by adding 500 mL of RPMI (ThermoFisher cat ##22400-089) and 10% Fetal Bovine Serum (Gibco) for WM793 cells (ATCC Cat #CRL-2806, RRID: CVCL 8787) and F12K (Thermo Fisher cat #21127-022, 500 mL; or 21127-030, 10×500 mL)+10% FBS for PC3 (ATCC CRL-1435) cells. The entire media with supplements was filter sterilized through a 0.4 μm bottle top filter system. Cancer cell lines were detached from traditional cell culture flasks by washing three times with 1×PBS and adding an appropriate amount of 0.25% TrypLE™ Express Enzyme (1×), no phenol red (ThermoFisher cat #12604013) to create a thin layer over the cells. Trypsin was neutralized with media containing serum and proceeded to count the cells.
After counting the cells, the concentration of the cell solution was adjusted to seed a total of 750 cells per well in 50 μL of complete media into 384-well tissue culture treated plates. In a biological safety cabinet, cells were seeded using a sterilized small stainless steel tipped cassette on a Multi-drop Combi. Between different cell lines, the tubing of the cassette was flushed with 1× sterile PBS for 10 seconds. Alternatively, cells can be seeded using a Multi-flow located within a Hepa filtered robotics room using either a sterilized small sapphire jewel tipped cassette and the peristatic pump, or the attached syringe pump, depending on volume of plates per cell line needed. The plates were placed in an incubator set at 37° C., with 5% CO2 and 95% relative humidity. A 10-point, 3-fold serial dilutions of compounds in 100% DMSO was prepared on a liquid handling robot with a 10 mM top concentration. 100 nL/well in three assay plates/1 compound was dispensed to source plate, with the highest concentration at 20 μM. After addition of compound was complete, plates were placed into an incubator at 37° C., with 5% CO2 and 95% relative humidity for 3 d. An adequate volume of CellTiter-Glo® (Promega #G7571) detection reagent was pre-warmed to RT or in a 37° C. H2O bath. 25 μL of the reagent was added to each well using either a Multi-drop Combi or MultiFlo and incubate at RT for at least 15 min. Luminesce was captured on a plate luminometer such as an Envision or View Lux to measure Day 0 time point both select cell lines. LUM plus, gain 3500, 0.1 s and focal height 12.5 mm on PheraStar reader. At Day 3, an adequate volume of CellTiter-Glo® detection reagent was pre-warmed at RT or in a 37° C. H2O bath. A total of 25 μL of the reagent was added to each well using either a Multi-drop Combi or MultiFlo and incubate at RT for at least 15 min. Luminesce was captured on a plate luminometer such as an Envision or View Lux to measure Day 3 time point both select cell lines. LUM plus, gain 3500, 0.1 s and focal height 12.5 mm on PheraStar reader. Raw data was extracted from the instrument and all fields containing test compounds were normalized to the average of all wells containing DMSO alone from Day 3 as neutral control and Day 0 starting numbers. From this value, percent growth inhibition of each compound was calculated. Dose response curves and growth inhibitory IC50s were generated by graphing the normalized data values against the compound concentration using a program such as GraphPad™ or Excel Fit.

[1] = target: T1, ERK2[2-360(p-T185/p-Y187)]-Avi (Homo sapiens, UniProt P28482); experiment: Biochemical assay (HTRF competition assay); format: binding; conditions: HTRF competition with Example 15 probe, overnight at RT; read-out: Biochemical qualified AC50
T1 construct: 400 pM ERK2[2-360(p-T185/p-Y187)]-Avi was added to the plate
Experimental: The competition assays were performed at RT in a 384-well white polystyrene, flat bottom plate (Greiner #784075) using a final reaction volume of 15 μL and the following assay buffer conditions: 50 mM MOPS, pH 7.2, 10 mM MgCl2, 0.5 mM TCEP, 0.01% Triton-X-100. 75 nL of a 10 mM compound solution in DMSO or 100% DMSO (12 point titration, final concentration: 50 μM-300 pM; final DMSO: 0.5%) was added using an acoustic liquid handler (Echo, Beckman Coulter) to wells containing 7.5 μL of 1-(6-((R)-3-(1-(5-chloro-1-((tetrahydro-2H-pyran-4-yl)methyl)-1H-indole-3-carbonyl)-4-(4-fluorophenyl)piperidine-4-carboxamido)pyrrolidin-1-yl)-6-oxohexyl)-3,3-dimethyl-5-sulfo-2-((1E,3E)-5-((E)-1,3,3-trimethyl-5-sulfoindolin-2-ylidene)penta-1,3-dien-1-yl)-3H-indol-1-ium (Example 15); 7.5 μL 400 pM SA-Tb (Cisbio, 610SATLB) and 400 pM ERK2[2-360(p-T185/p-Y187)]-Avi was added to the plate and incubated overnight at RT. HTRF signal was measured using a microplate reader (PheraStar, BMG Labtech) with excitation and emission wavelengths of […], respectively. The inhibitor dose-response curves were analyzed from the HTRF ratio signal using normalized IC50 regression curve fitting with control-based normalization.

[2] = target: T2, nanobit-large-bit-ERK2 and nanobit-small-bit-PEA15 in WM793 cells (Homo sapiens, UniProt P28482); experiment: NanoBiT assay; format: cell-based; conditions: WM793 nanobit stable cell line, overnight incubation; read-out: NanoBiT qualified absolute AC50
T2 construct: expressed in transfected cells
Experimental: as §1
A nanobit stable cell line was generated using WM793 cells with nanobit-large-bit-ERK2 and nanobit-small-bit-PEA15. […] In a biological safety cabinet, cells were seeded using a sterilized small stainless steel tipped cassette on a Multi-drop Combi. Between different cell lines, the tubing of the cassette was flushed with 1× sterile PBS for 10 s. Alternatively, cells can be seeded using a Multi-flow located within a Hepa filtered robotics room using either a sterilized small sapphire jewel tipped cassette and the peristatic pump, or the attached syringe pump, depending on volume of plates per cell line needed. The plates were placed in an incubator set at 37° C., with 5% CO2 and 95% relative humidity. A 10-point, 3-fold serial dilution of compounds was prepared in 100% DMSO on a liquid handling robot with a 10 mM top concentration. 90 nl/well was dispensed in three assay plates/1 compound source plate, with the highest concentration at 30 μM. After addition of compound was complete, the plates were placed into an incubator at 37° C., with 5% CO2 and 95% relative humidity for overnight. Luminescence was captured on a plate luminometer such as an Envision or View Lux to measure Day 0 time point both select cell lines. LUM plus, gain 3500, 0.1 s and focal height 12.5 [mm] on PheraStar reader. The raw data was extracted from the instrument and normalized all fields containing test compounds to the average of all wells containing DMSO alone as neutral control. From this value, the percent growth inhibition was calculated for each compound. Dose response curves and inhibitory IC50s were generated by graphing the normalized data values against the compound concentration using either a program such as GraphPad™ or Excel Fit.

T1 sequence (P28482 2-360 limits assumed): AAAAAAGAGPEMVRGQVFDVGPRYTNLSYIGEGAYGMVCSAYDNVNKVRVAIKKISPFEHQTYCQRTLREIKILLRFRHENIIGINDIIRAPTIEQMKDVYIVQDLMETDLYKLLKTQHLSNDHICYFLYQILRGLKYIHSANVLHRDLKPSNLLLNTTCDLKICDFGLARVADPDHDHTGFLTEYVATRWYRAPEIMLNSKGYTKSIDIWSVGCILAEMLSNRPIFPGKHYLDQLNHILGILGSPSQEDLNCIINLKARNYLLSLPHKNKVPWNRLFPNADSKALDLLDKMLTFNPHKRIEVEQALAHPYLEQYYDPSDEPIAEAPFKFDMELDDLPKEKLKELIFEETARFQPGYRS
T2 sequence (P28482 whole entry): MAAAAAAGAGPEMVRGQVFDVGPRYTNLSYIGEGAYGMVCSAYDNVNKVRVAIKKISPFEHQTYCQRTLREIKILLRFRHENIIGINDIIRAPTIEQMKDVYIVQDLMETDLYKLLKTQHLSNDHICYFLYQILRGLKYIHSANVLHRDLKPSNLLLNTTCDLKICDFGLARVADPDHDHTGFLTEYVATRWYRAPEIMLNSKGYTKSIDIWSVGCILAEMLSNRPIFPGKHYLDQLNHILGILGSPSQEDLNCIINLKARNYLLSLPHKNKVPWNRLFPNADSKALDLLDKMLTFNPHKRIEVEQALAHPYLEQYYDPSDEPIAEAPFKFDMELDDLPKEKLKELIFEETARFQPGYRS

| SMILES | AC50 [1] | AC50 [2] | AC50 (WM793 cells; Homo sapiens, WM793, 72 h) | AC50 (WM793 cells) |
| --- | --- | --- | --- | --- |
| CC(C)O[C@H]1CC[C@H](Cn2c(C=O)c(C(=O)N3CCC(C(=O)N[C@H]4CC[C@H](C(=O)O)C[C@@H]4C)(c4ccc(F)cc4)CC3)c3cc(Cl)ccc32)CC1 [Example 11h] | < 0.28 nM | 54 nM | 120 nM | – |
| C[C@H]1C[C@@H](C(=O)O)CC[C@@H]1NC(=O)C1(c2ccc(F)cc2)CCN(C(=O)n2c3c(c4ccc(F)cc42)[C@@H](c2ccccc2)OCC3)CC1 (single isomer, unassigned) [Example 10b] | 37 nM | 12000 nM | 10000 nM | – |
| CCc1c(C[C@H]2CC[C@H](OC(C)C)CC2)c2ccc(F)cc2n1C(=O)N1CCC(C(=O)N[C@H]2CC[C@H](C(=O)O)C[C@@H]2C)(c2ccc(F)cc2)CC1 [Example 2, (1S,3S,4S)-4-(1-(2-ethyl-6-fluoro-3-(((1r,4S)-4-isopropoxycyclohexyl)methyl)-1H-indole-1-carbonyl)-4-(4-fluorophenyl)piperidine-4-carboxamido)-3-methylcyclohexane-1-carboxylic acid] | < 0.28 nM | 190 nM | – | 110 nM |
| C[C@H]1C[C@@H](C(=O)O)CC[C@@H]1NC(=O)[C@@]1(c2ccc(F)cc2)CCN(C(=O)N2CC([C@H]3CC[C@H](OC4CCOCC4)CC3)c3ccc(F)cc32)[C@@H](C)C1 (single isomer, unassigned) [Example 4a] | 0.87 nM | 24 nM | 4 nM | – |
| CN1CC[C@@H](NC(=O)C2(c3ccc(Cl)cc3)CCN(C(=O)c3c(C=O)n(CC4CCOCC4)c4ccc(Cl)cc34)CC2)C1 [Example 11b] | 0.65 nM | 560 nM | 220 nM | – |
| COCCc1c(C[C@H]2CC[C@H](OC(C)C)CC2)c2ccc(F)cc2n1C(=O)N1CCC(C(=O)N[C@H]2CC[C@H](C(=O)O)C[C@@H]2C)(c2ccc(F)cc2)CC1 [Example 3, (1S,3S,4S)-4-(1-(6-fluoro-3-(((1r,4S)-4-isopropoxycyclohexyl)methyl)-2-(2-methoxyethyl)-1H-indole-1-carbonyl)-4-(4-fluorophenyl)piperidine-4-carboxamido)-3-methylcyclohexane-1-carboxylic acid] | 0.5 nM | 46 nM | 60 nM | – |
| CCc1c(C[C@H]2CC[C@H](OC3CCOCC3)CC2)c2ccc(F)cc2n1C(=O)N1CCC(C(=O)N[C@H]2CC[C@H](C(=O)O)CC2(C)C)(c2ccc(F)cc2)CC1 [Example 1e] | < 0.28 nM | 19 nM | 70 nM | – |
| CCc1c(C[C@H]2CC[C@H](OC3CCOCC3)CC2)c2ccc(F)cc2n1C(=O)N1CC[C@@](C(=O)N[C@H]2CC[C@H](C(=O)O)C[C@@H]2C)(c2ccc(F)c(F)c2)C[C@@H]1C [Example 1a] | < 0.28 nM | 160 nM | 10 nM | – |
| CN1CC[C@@H](NC(=O)C2(c3ccc(F)cc3)CCN(C(=O)c3cn(CC4CCOCC4)c4ccc(Br)cc34)CC2)C1 [Example 11, (R)-1-(5-bromo-1-((tetrahydro-2H-pyran-4-yl)methyl)-1H-indole-3-carbonyl)-4-(4-fluorophenyl)-N-(1-methylpyrrolidin-3-yl)piperidine-4-carboxamide] | 18 nM | 4900 nM | 2700 nM | – |
| CCc1c(C[C@H]2CC[C@H](OC3CCOCC3)CC2)c2ccc(F)cc2n1C(=O)N1CC[C@@](C(=O)N[C@H]2CC[C@H](C(=O)O)C[C@@H]2C)(c2ccc(F)cc2)C[C@@H]1C [Example 6, (1S,3S,4S)-4-((2S,4S)-1-(2-ethyl-6-fluoro-3-(((1r,4S)-4-((tetrahydro-2H-pyran-4-yl)oxy)cyclohexyl)methyl)-1H-indole-1-carbonyl)-4-(4-fluorophenyl)-2-methylpiperidine-4-carboxamido)-3-methylcyclohexane-1-carboxylic acid] | 0.98 nM | 72 nM | – | 23 nM |

Continued, in another order:

| AC50 [1] | AC50 [2] | SMILES | AC50 (WM793 cells; Homo sapiens, WM793, 72 h) | AC50 (WM793 cells) |
| --- | --- | --- | --- | --- |
| < 0.28 nM | 30 nM | CCc1c(C[C@H]2CC[C@H](OC3CCOCC3)CC2)c2ccc(F)cc2n1C(=O)N1CC[C@@](C(=O)N[C@H]2CC[C@H](C(=O)O)C[C@@H]2C)(c2ccccc2)C[C@@H]1C [Example 1j] | 29 nM | – |
| < 0.28 nM | 55 nM | CCc1c(CC2CCOCC2)c2ccc(F)cc2n1C(=O)N1CCC(C(=O)N[C@H]2CC[C@H](C(=O)O)C[C@@H]2C)(c2ccc(F)cc2)CC1 [Example 1h] | 16 nM | – |
| 1.3 nM | 390 nM | CO[C@H]1CC[C@H](Cc2c(C)n(C(=O)N3CCC(C(=O)N[C@H]4CC[C@H](C(=O)O)CC4)(c4ccc(F)cc4)CC3)c3cc(F)ccc23)CC1 [Example 1c] | 940 nM | – |
| < 0.28 nM | 31 nM | Cc1c(CC2CCC(OC(C)C)CO2)c2ccc(F)cc2n1C(=O)N1CC[C@@](C(=O)N[C@H]2CC[C@H](C(=O)O)C[C@@H]2C)(c2ccc(F)cc2)C[C@@H]1C (stereo partly drawn) [Example 1i] | 15 nM | – |
| < 0.28 nM | 270 nM | Cc1c(C[C@H]2CC[C@H](OC(C)C)CC2)c2ccc(F)cc2n1C(=O)N1CC[C@@](C(=O)N[C@H]2CC[C@H](C(=O)O)C[C@@H]2C)(c2ccc(F)cc2)C[C@@H]1C [Example 1l] | 18 nM | – |
| 0.32 nM | 260 nM | C[C@H]1C[C@@H](C(=O)O)CC[C@@H]1NC(=O)[C@@]1(c2ccc(F)cc2)CCN(C(=O)N2CCc3ccc(F)cc32)[C@@H](C)C1 [Example 4b] | 220 nM | – |
